Measured values published in publication PMC10106425 (ACS infectious diseases, 2023).
Read-outs that look alike come from different tables or passages of the source.

How the values were obtained:
[1] = test system: Plasmodium falciparum strain Dd2; experiment: SYBR Green I proliferation assay, asynchronous blood stage, Dd2; format: cell-based; conditions: for EC50: read-out: Pf Dd2 EC50
HepG2 cells = experiment: Cytotoxicity assay; format: cell-based, human; conditions: for EC50: read-out: HepG2 EC50
human PLK1 = conditions: read-out: PLK1 IC50, from prior publication or from Selleck Chemicals ref 15, 16; cited from earlier work
PfARK1 = experiment: KinaseSeeker split-luciferase competitive binding assay; design: species or system P. falciparum
PfARK3 = experiment: as above; design: species or system P. falciparum
CDPK2 = CDPK2 (Plasmodium falciparum, UniProt Q8ICR0); experiment: as above; design: species or system P. falciparum; conditions: read-out: % activity remaining at 2.5 μM, CDPK2
CDPK5 = CDPK5 (Plasmodium falciparum, UniProt A0A5K1K8H0); experiment: as above; design: species or system P. falciparum; conditions: read-out: % activity remaining at 2.5 μM, CDPK5
GSK3 = GSK3 (Plasmodium falciparum, UniProt O77344); experiment: as above; design: species or system P. falciparum; conditions: read-out: % activity remaining at 2.5 μM, GSK3
Pf NEK1 = experiment: as above; design: species or system P. falciparum
Pf NEK3 (PF3D7_1201600) = Pf NEK3 (PF3D7_1201600) (Plasmodium falciparum, UniProt Q8I629); experiment: biochemical; format: binding; conditions: for remaining activity at 2.5 µM: read-out: % activity remaining at 2.5 μM, NEK3
PK5 = PK5 (Plasmodium falciparum, UniProt P61075); experiment: KinaseSeeker split-luciferase competitive binding assay; design: species or system P. falciparum; conditions: read-out: % activity remaining at 2.5 μM, PK5
PK6 = PK6 (Plasmodium falciparum, UniProt O77239); experiment: as above; design: species or system P. falciparum; conditions: read-out: % activity remaining at 2.5 μM, PK6
PK9 = experiment: as above; design: species or system P. falciparum
PKB = PKB (Plasmodium falciparum, UniProt Q8I4W3); experiment: as above; design: species or system P. falciparum; conditions: read-out: % activity remaining at 2.5 μM, PKB
P. falciparum Dd2 = experiment: Flow-cytometry rate of killing assay; format: cell-based, Plasmodium falciparum; conditions: 10 × EC50
[2] = test system: synchronized Dd2 parasites; experiment: Stage-specific assay; format: cell-based, Plasmodium falciparum; conditions: 5 × EC50 applied later in the ring stage (18 HPI)
[3] = test system: Plasmodium falciparum strain 3D7; experiment: SYBR Green I proliferation assay, asynchronous blood stage, 3D7
PfARK2 [4] = experiment: Radioactive kinase assay; format: biochemical, P. falciparum; conditions: highest concentration tested 2 μM
PfARK2 [5] = experiment: ADP-Glo kinase assay; format: biochemical, P. falciparum; conditions: up to 5 μM
[6] = 72 h, average ± SEM, at least three biological replicates
[7] = 48 h, average ± SEM, at least three biological replicates
[8] = Plasmodium falciparum, DD2, 72 h
[9] = 3D7, 72 h, read-out: Pf 3D7 EC50

Chain of CDPK5 (A0A5K1K8H0 whole entry): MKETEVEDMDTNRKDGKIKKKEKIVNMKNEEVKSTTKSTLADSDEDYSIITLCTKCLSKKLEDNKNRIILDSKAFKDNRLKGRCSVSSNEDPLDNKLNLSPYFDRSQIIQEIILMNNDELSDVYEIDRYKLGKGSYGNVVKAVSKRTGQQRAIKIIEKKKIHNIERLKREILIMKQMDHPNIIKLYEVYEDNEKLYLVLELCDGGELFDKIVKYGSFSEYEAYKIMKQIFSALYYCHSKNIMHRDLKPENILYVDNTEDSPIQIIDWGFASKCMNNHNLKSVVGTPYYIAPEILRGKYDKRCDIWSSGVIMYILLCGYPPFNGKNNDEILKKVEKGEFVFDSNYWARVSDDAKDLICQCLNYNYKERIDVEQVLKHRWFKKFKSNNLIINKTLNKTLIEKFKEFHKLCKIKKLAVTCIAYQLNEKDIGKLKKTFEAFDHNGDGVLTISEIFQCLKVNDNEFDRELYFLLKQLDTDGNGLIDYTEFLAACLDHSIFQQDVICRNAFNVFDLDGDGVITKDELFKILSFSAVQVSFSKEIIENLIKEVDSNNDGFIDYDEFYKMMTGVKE
Chain of CDPK2 (Q8ICR0 whole entry): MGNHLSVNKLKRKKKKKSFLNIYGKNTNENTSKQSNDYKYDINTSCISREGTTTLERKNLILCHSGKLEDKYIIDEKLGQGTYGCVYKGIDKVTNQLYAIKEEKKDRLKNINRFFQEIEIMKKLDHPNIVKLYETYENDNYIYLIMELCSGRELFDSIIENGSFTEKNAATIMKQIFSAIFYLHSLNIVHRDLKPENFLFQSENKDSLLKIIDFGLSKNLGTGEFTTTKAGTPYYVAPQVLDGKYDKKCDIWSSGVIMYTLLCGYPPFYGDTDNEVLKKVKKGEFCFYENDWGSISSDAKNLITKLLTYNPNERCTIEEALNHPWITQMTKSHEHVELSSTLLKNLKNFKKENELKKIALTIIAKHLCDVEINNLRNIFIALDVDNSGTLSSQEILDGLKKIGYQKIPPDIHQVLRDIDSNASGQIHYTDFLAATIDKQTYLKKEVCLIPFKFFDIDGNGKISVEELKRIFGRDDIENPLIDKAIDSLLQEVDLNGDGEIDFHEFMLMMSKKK
Chain of PK5 (P61075 whole entry): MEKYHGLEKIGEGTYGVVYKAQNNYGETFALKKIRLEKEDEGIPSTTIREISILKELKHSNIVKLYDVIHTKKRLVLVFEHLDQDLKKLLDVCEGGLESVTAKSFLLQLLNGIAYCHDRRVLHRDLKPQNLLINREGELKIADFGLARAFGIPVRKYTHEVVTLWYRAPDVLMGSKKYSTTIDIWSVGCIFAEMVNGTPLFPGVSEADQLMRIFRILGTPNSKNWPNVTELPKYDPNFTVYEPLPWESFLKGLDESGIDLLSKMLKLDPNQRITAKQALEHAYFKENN

## COc1cc2ncn(-c3cc(OCc4ccccc4C(F)(F)F)c(C(N)=O)s3)c2cc1OC [GW843682 (17), GW843682]
[1]; [6]
  EC50: > 5000 nM
HepG2 cells; [7]
  EC50: > 25000 nM
Human PLK1
  IC50: 2.2 nM

## CC[C@@H]1C(=O)N(C)c2cnc(Nc3ccc(C(=O)N[C@H]4CC[C@H](N5CCN(CC6CC6)CC5)CC4)cc3OC)nc2N1C(C)C [BI-6727 (11), BI-6727]
[1]
  Resistance Index (RI) = Dd2 EC50/3D7 EC50: 0.81
[1]; [8]
  EC50: 230 ± 14 nM
HepG2 cells
  Selectivity Index (SI) = HepG2 EC50/Dd2 EC50: 8.0
HepG2 cells; Homo sapiens, HepG2, 48 h
  EC50: 1930 ± 460 nM
PfARK1
  % activity remaining at 2.5 μM, ARK1: 100.0%
PfARK3
  % activity remaining at 2.5 μM, ARK3: 83.6%
CDPK2
  remaining activity at 2.5 µM: 100%
CDPK5
  remaining activity at 2.5 µM: 100%
GSK3
  remaining activity at 2.5 µM: 100%
Pf NEK1
  % activity remaining at 2.5 μM, NEK1: 93.8%
Pf NEK3 (PF3D7_1201600)
  IC50: 130 nM
  remaining activity at 2.5 µM: 11.1%
PK5
  remaining activity at 2.5 µM: 100%
PK6
  remaining activity at 2.5 µM: 67.3%
PK9
  % activity remaining at 2.5 μM, PK9: 100.0%
PKB
  remaining activity at 2.5 µM: 49.3%
P. falciparum Dd2
  compound incubation required for a full killing effect: 24 to 48 h
[2]
  DNA replication (YOYO-1 signal): delayed increase in the YOYO-1 signal at 54 h
Human PLK1
  IC50: 0.87 nM
[3]; [9]
  EC50: 284 ± 52 nM

## COc1cc(OC)c(/C=C/S(=O)(=O)Cc2ccc(OC)c(NCC(=O)O)c2)c(OC)c1 [ON-01910 (16), ON-01910]
[1]; [8]
  EC50: > 5000 nM
HepG2 cells
  Selectivity Index (SI) = HepG2 EC50/Dd2 EC50: […]
HepG2 cells; Homo sapiens, HepG2, 48 h
  EC50: 11900 nM
Human PLK1
  IC50: […]

## C[C@@H](Oc1cc(-n2cnc3ccc(CN4CCN(C)CC4)cc32)sc1C(N)=O)c1ccccc1C(F)(F)F [GSK461364 (12), GSK461364]
[1]; [8]
  EC50: 533 ± 78 nM
HepG2 cells; Homo sapiens, HepG2, 48 h
  EC50: 1910 ± 210 nM
PfARK1
  % activity remaining at 2.5 μM, ARK1: 99.5%
PfARK3
  % activity remaining at 2.5 μM, ARK3: 96.2%
CDPK2
  remaining activity at 2.5 µM: 100%
CDPK5
  remaining activity at 2.5 µM: 100%
GSK3
  remaining activity at 2.5 µM: 100%
Pf NEK1
  % activity remaining at 2.5 μM, NEK1: 100.0%
Pf NEK3 (PF3D7_1201600)
  IC50: 19 nM
  remaining activity at 2.5 µM: 9.7%
PK5
  remaining activity at 2.5 µM: 100%
PK6
  remaining activity at 2.5 µM: 100%
PK9
  % activity remaining at 2.5 μM, PK9: 100.0%
PKB
  remaining activity at 2.5 µM: 100%
PfARK2 [4]
  inhibitory effect in PfARK2: neither compound displayed inhibitory effects
P. falciparum Dd2
  compound incubation required for a full killing effect: 24 to 48 h
Human PLK1
  IC50: 2.2 nM
[3]; [9]
  EC50: 1410 ± 77 nM

## Cc1ncc(CCCN(C)C)cc1Nc1ncc2c(n1)-c1ccc(C(F)(F)F)cc1NC(=S)C2 [MLN0905 (13), MLN0905]
[1]; [6]
  EC50: 1820 ± 260 nM
HepG2 cells
  Selectivity Index (SI) = HepG2 EC50/Dd2 EC50: 2.0
HepG2 cells; [7]
  EC50: 3940 ± 110 nM
Human PLK1
  IC50: 2 nM

## CN1CCN(c2ccc(OC(F)(F)F)c(Nc3ncc4c(n3)-c3c(c(C(N)=O)nn3CCO)CC4)c2)CC1 [NMS-P937 (15), NMS-P937]
[1]; [6]
  EC50: > 5000 nM
HepG2 cells
  Selectivity Index (SI) = HepG2 EC50/Dd2 EC50: […]
HepG2 cells; [7]
  EC50: 6010 ± 79 nM
Human PLK1
  IC50: […]

## SBE 13 [SBE 13 (14)]
[1]; [6]
  EC50: 3570 ± 130 nM
HepG2 cells
  Selectivity Index (SI) = HepG2 EC50/Dd2 EC50: >7.0
HepG2 cells; [7]
  EC50: > 25000 nM
Human PLK1
  IC50: 0.2 nM

## Nc1ccc(-c2ccc3ncc4ccc(=O)n(-c5cccc(C(F)(F)F)c5)c4c3c2)cn1 [torin2]
[1]; [6]
  EC50: 5.3 ± 0.3 nM

## CC[C@@H]1C(=O)N(C)c2cnc(Nc3ccc(C(=O)NC4CCN(C)CC4)cc3OC)nc2N1C1CCCC1 [BI-2536 (1), BI-2536]
[1]; [8]
  EC50: 178 ± 12 nM
HepG2 cells; Homo sapiens, HepG2, 48 h
  EC50: 3730 ± 520 nM
PfARK2 [4]
  inhibitory effect in PfARK2: neither compound displayed inhibitory effects
PfARK2 [5]
  activity in PfARK2: lack of activity
P. falciparum Dd2
  compound incubation required for a full killing effect: 24 to 48 h
[3]; [9]
  EC50: 135 ± 35 nM
[3]; 3D7, read-out: EC50, 3D7 clone A10
  EC50: 288 nM
